Experimental findings from patent US11312712B2, “Azabenzimidazoles and their use as AMPA receptor modulators” (Janssen Pharmaceutica NV, priority 2015, dated 2022) are described below.

Structures are written as SMILES.

GluA1o-γ8 (GRIA1o-CACNG8 fusion construct), sequence (P42261 other isoform, or with tags, fused parts or gaps): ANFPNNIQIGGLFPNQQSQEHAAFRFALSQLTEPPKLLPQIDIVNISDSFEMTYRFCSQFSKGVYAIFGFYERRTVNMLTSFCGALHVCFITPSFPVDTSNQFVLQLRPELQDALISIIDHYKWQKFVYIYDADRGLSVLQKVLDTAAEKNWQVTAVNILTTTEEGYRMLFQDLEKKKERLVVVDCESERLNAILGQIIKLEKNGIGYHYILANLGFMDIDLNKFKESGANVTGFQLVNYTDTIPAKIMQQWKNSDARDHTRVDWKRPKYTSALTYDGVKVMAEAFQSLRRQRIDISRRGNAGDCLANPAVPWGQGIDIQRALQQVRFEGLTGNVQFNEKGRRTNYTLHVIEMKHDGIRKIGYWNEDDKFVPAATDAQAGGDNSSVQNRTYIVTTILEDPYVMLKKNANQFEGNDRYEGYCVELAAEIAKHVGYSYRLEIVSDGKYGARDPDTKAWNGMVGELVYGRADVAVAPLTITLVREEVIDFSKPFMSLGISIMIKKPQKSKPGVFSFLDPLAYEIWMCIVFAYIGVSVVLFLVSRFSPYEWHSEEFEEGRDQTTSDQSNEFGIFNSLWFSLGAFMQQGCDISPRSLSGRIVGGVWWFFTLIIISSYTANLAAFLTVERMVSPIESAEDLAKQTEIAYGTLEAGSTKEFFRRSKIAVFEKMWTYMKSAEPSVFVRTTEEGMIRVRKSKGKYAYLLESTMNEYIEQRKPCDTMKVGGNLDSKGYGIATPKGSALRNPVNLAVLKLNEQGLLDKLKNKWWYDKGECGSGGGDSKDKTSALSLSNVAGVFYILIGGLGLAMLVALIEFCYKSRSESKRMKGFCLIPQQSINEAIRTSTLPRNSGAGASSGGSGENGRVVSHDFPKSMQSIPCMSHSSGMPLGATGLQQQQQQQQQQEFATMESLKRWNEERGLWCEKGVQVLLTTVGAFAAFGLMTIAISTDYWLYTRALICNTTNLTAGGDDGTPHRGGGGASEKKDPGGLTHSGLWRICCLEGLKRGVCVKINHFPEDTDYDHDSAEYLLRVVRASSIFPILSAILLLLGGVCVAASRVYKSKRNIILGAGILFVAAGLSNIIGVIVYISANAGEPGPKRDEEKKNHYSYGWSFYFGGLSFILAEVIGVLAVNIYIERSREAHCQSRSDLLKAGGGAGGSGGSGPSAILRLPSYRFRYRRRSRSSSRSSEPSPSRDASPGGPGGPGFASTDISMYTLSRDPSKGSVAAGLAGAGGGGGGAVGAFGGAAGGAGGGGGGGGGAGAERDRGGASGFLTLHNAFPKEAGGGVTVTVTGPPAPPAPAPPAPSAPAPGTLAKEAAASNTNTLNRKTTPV

This assay has as its target GluA1o-γ8 (GRIA1o-CACNG8 fusion construct) (Homo sapiens (Human), UniProt P42261+Q8WXS5). Nature of the assay: Calcium flux assay (FLIPR), inhibition of TARP γ8 dependent AMPA receptor activity. Type of assay: cell-based. The following applies: GluA1o-γ8 (GRIA1o-CACNG8 fusion) in HEK293 cells, calcium flux after 15 μM glutamate. The method, boiled down:
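Glutamate (15 μM) was added to a stable HEK293 line carrying the GluA1o–γ8 fusion, which had been preincubated with compound and calcium dye in HEPES buffer, pH 7.4. Normalized FLIPR fluorescence (no compound vs 10 μM CP465022) was fitted with four parameters; pIC50 is the midpoint's negative log.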
The term IC50 denotes the point on the concentration scale where inhibition reaches its midpoint. Consider `Cc1nc2ccc(C(F)(F)F)nc2n1-c1cc(Cl)c2[nH]ncc2c1` [Example 312, 3-(7-Chloro-1H-indazol-5-yl)-2-methyl-5-(trifluoromethyl)imidazo[4,5-b]pyridine], for which the IC50 is 0.251 nM. On to `Cn1c(=O)sc2cc(-n3c(C4CCC4)nc4ccc(C(F)(F)F)nc43)ccc21` [Example 185, 6-(2-Cyclobutyl-5-(trifluoromethyl)-3H-imidazo[4,5-b]pyridin-3-yl)-3-methylbenzo[d]thiazol-2(3H)-one], for which the IC50 was 100 nM. As for `O=c1[nH]c2ccc(-n3c(C(F)(F)F)nc4ccc(C(F)(F)F)nc43)cc2s1` [Example 134, 6-[2,5-Bis(trifluoromethyl)imidazo[4,5-b]pyridin-3-yl]-3H-1,3-benzothiazol-2-one], the IC50 was 0.0794 nM. `O=c1[nH]c2ccc(-n3c(-c4ccccc4)nc4ccc(C(F)F)nc43)cc2s1` [Example 67, 6-(5-(Difluoromethyl)-2-phenyl-3H-imidazo[4,5-b]pyridin-3-yl)benzo[d]thiazol-2(3H)-one]: the IC50 was 0.1 nM. On to `Cc1cc(-n2c3nc(C(F)(F)F)ccc3nc2[C@H]2C[C@H](F)C2)cc2cn[nH]c12` [Example 247, 2-(3-Fluorocyclobutyl)-3-(7-methyl-1H-indazol-5-yl)-5-(trifluoromethyl)imidazo[4,5-b]pyridine], for which the IC50 was 0.0631 nM.

As to `O=C1Cc2cc(-n3c(C4CNC4)nc4ccc(C(F)(F)F)nc43)ccc2N1` [Example 180, 5-[2-(Azetidin-3-yl)-5-(trifluoromethyl)imidazo[4,5-b]pyridin-3-yl]indolin-2-one], the IC50 is 2000 nM. Consider `O=c1[nH]c2ccc(-n3c(C4CC4)nc4ccc(C(F)(F)F)nc43)cc2o1` [Example 107, 6-[2-Cyclopropyl-5-(trifluoromethyl)imidazo[4,5-b]pyridin-3-yl]-3H-1,3-benzoxazol-2-one], for which the IC50 was 15.8 nM. As for `c1cc2[nH]ncc2cc1-n1c(C2CCC2)nc2ccc(C3CC3)nc21` [Example 78, 2-Cyclobutyl-5-cyclopropyl-3-(1H-indazol-5-yl)imidazo[4,5-b]pyridine], the IC50 was 0.158 nM. Turning to `CC(C)c1ccc2nc(C3CCC3)n(-c3ccc4[nH]ncc4c3)c2n1` [Example 119, 2-Cyclobutyl-3-(1H-indazol-5-yl)-5-isopropyl-imidazo[4,5-b]pyridine], the IC50 was 0.0316 nM. Regarding `CCc1nc2ccc(C(F)(F)F)nc2n1-c1cc(C)c2[nH]ncc2c1` [Example 315, 2-Ethyl-3-(7-methyl-1H-indazol-5-yl)-5-(trifluoromethyl)imidazo[4,5-b]pyridine], the IC50 is 0.1 nM.

Take `FC(F)(F)c1ccc2nc(CC3CC3)n(-c3cc(Cl)c4[nH]ncc4c3)c2n1` [Example 411, 3-(7-Chloro-1H-indazol-5-yl)-2-(cyclopropylmethyl)-5-(trifluoromethyl)-3H-imidazo[4,5-b]pyridine]: the IC50 is 0.158 nM. On to `O=C1Cc2cc(-n3c(C4CC4)nc4ccc(Cl)nc43)ccc2N1` [Example 95, 5-(5-Chloro-2-cyclopropyl-imidazo[4,5-b]pyridin-3-yl)indolin-2-one], for which the IC50 is 39.8 nM. Consider `Cc1nc2ccc(C(F)F)nc2n1-c1cc(Cl)c2[nH]ncc2c1` [Example 274, 3-(7-Chloro-1H-indazol-5-yl)-5-(difluoromethyl)-2-methyl-imidazo[4,5-b]pyridine], for which the IC50 is 0.316 nM.

As to `Cc1cc(-n2c(C)nc3ccc(C(F)(F)F)nc32)cc2c1NC(=O)C2` [Example 309, 7-Methyl-5-[2-methyl-5-(trifluoromethyl)imidazo[4,5-b]pyridin-3-yl]indolin-2-one], the 50% inhibitory concentration (IC50) was 0.631 nM. As to `O=C1Cc2cc(-n3c(-c4ccccc4)nc4ccc(C(F)(F)F)nc43)ccc2N1` [Example 36, 5-[2-Phenyl-5-(trifluoromethyl)imidazo[4,5-b]pyridin-3-yl]indolin-2-one], the IC50 is 0.398 nM.

Take `O=C1Cc2cc(-n3c(-c4ccccc4)cc4ccc(C(F)(F)F)nc43)ccc2N1` [Example 397, 5-[2-Phenyl-6-(trifluoromethyl)pyrrolo[2,3-b]pyridin-1-yl]indolin-2-one]: the IC50 is 0.0398 nM. With `C=C(C)c1cc(-n2c(C(F)(F)F)nc3ccc(C(F)(F)F)nc32)cc2cn[nH]c12` [Example 305, 3-(7-(Prop-1-en-2-yl)-1H-indazol-5-yl)-2,5-bis(trifluoromethyl)-3H-imidazo[4,5-b]pyridine], the IC50 was 0.02 nM. To `CC(C)c1nc2ccc(C(F)(F)F)nc2n1-c1cnc2[nH]ncc2c1` [Example 302, 2-Isopropyl-3-(1H-pyrazolo[3,4-b]pyridin-5-yl)-5-(trifluoromethyl)imidazo[4,5-b]pyridine] belongs 39.8 nM. Consider `COCc1nc2ccc(C(F)(F)F)nc2n1-c1cc(Cl)c2[nH]ncc2c1` [Example 413, 3-(7-Chloro-1H-indazol-5-yl)-2-(methoxymethyl)-5-(trifluoromethyl)-3H-imidazo[4,5-b]pyridine], for which the IC50 was 0.398 nM. On to `CC(F)(F)c1nc2ccc(C(F)F)nc2n1-c1ccc2c(c1)CC(=O)N2` [Example 154, 5-[2-(1-Difluoroethyl)-5-(difluoromethyl)imidazo[4,5-b]pyridin-3-yl]indolin-2-one], for which the IC50 was 5.01 nM.

Consider `Cc1ccc2nc(-c3ccccc3)n(-c3ccc4c(cnn4C(=O)OC(C)(C)C)c3)c2n1` [Example 12, tert-Butyl 5-(5-methyl-2-phenyl-imidazo[4,5-b]pyridin-3-yl)indazole-1-carboxylate], for which the IC50 was 20 nM. On to `Cc1cc(-n2c([C@@H](C)F)nc3ccc(C(F)(F)F)nc32)cc2cn[nH]c12` (single isomer, unassigned) [Example 256, (*R)-2-(1-Fluoroethyl)-3-(7-methyl-1H-indazol-5-yl)-5-(trifluoromethyl)imidazo[4,5-b]pyridine], for which the IC50 was 0.0794 nM.

With `COCc1cc2ccc(C(F)(F)F)nc2n1-c1cc(F)c2c(c1)CC(=O)N2` [Example 366, 7-Fluoro-5-[2-(methoxymethyl)-6-(trifluoromethyl)pyrrolo[2,3-b]pyridin-1-yl]indolin-2-one], the IC50 was 0.631 nM. The value for `Cc1cc(-n2c(C(F)(F)F)nc3ccc(CCCO)nc32)cc2cn[nH]c12` [Example 223, 3-(3-(7-Methyl-1H-indazol-5-yl)-2-(trifluoromethyl)-3H-imidazo[4,5-b]pyridin-5-yl)propan-1-ol] was 100 nM; that for `Cc1cnc2c(c1)nc(-c1ccccc1)n2-c1ccc2[nH]ncc2c1` [Example 9, 3-(1H-Indazol-5-yl)-6-methyl-2-phenyl-imidazo[4,5-b]pyridine] was 25.1 nM. The value for `FC(F)c1ccc2nc(C(F)F)n(-c3cc(Cl)c4[nH]ncc4c3)c2n1` [Example 207, 3-(7-Chloro-1H-indazol-5-yl)-2,5-bis(difluoromethyl)imidazo[4,5-b]pyridine] was 0.0631 nM; that for `CC(F)(F)c1nc2ccc(C(F)(F)F)nc2n1-c1ccc2c(c1)CC(=O)N2` [Example 93, 5-[2-(1,1-Difluoroethyl)-5-(trifluoromethyl)imidazo[4,5-b]pyridin-3-yl]indolin-2-one] was 7.94 nM; that for `Cc1cc(-n2c(C(F)(F)F)nc3ccc(C(F)(F)F)nc32)cc2[nH]ncc12` [Example 289, 3-(4-Methyl-1H-indazol-6-yl)-2,5-bis(trifluoromethyl)imidazo[4,5-b]pyridine] was 3.98 nM. The value for `O=C1Cc2cc(-n3c(C(F)F)nc4ccc(C(F)(F)F)nc43)cc(F)c2N1` [Example 288, 5-[2-(Difluoromethyl)-5-(trifluoromethyl)imidazo[4,5-b]pyridin-3-yl]-7-fluoro-indolin-2-one] was 6.31 nM; that for `CS(=O)(=O)Cc1nc2ccc(C(F)(F)F)nc2n1-c1ccc2[nH]ncc2c1` [Example 245, 3-(1H-indazol-5-yl)-2-(methylsulfonylmethyl)-5-(trifluoromethyl)imidazo[4,5-b]pyridine] was 316 nM. With `Cc1cc(-n2c(C(C)C)cc3cccnc32)cc2cn[nH]c12` [Example 332, 5-(2-Isopropyl-1H-pyrrolo[2,3-b]pyridin-1-yl)-7-methyl-1H-indazole], the IC50 was 0.0398 nM. Take `CC(C)c1ccnc2c1nc(-c1ccccc1)n2-c1ccc2[nH]c(=O)sc2c1` [Example 70, 6-(7-Isopropyl-2-phenyl-imidazo[4,5-b]pyridin-3-yl)-3H-1,3-benzothiazol-2-one]: the IC50 is 0.631 nM. For `Cc1ccc2nc(C(F)(F)F)n(-c3cc(Cl)c4[nH]ncc4c3)c2n1` [Example 268, 3-(7-Chloro-1H-indazol-5-yl)-5-methyl-2-(trifluoromethyl)imidazo[4,5-b]pyridine], the IC50 is 0.0631 nM. Take `CC(C)c1nc2ccc(C(F)F)nc2n1-c1ccc2[nH]ncc2c1` [Example 210, 5-(Difluoromethyl)-3-(1H-indazol-5-yl)-2-isopropyl-imidazo[4,5-b]pyridine]: the IC50 was 0.631 nM. With `Cc1ccc2cc(C(C)C)n(-c3cc(C)c4c(c3)CC(=O)N4)c2n1` [Example 360, 5-(2-Isopropyl-6-methyl-pyrrolo[2,3-b]pyridin-1-yl)-7-methyl-indolin-2-one], the IC50 is 0.0631 nM. Turning to `Cc1ccc2nc(-c3ccccc3Cl)n(-c3ccc4[nH]ncc4c3)c2n1` [Example 8, 2-(2-Chlorophenyl)-3-(1H-indazol-5-yl)-5-methyl-imidazo[4,5-b]pyridine], the IC50 was 63.1 nM.

Take `Cc1ccnc2c1nc(C(F)(F)F)n2-c1ccc2[nH]ncc2c1` [Example 201, 3-(1H-indazol-5-yl)-7-methyl-2-(trifluoromethyl)imidazo[4,5-b]pyridine]: the 50% inhibitory concentration (IC50) is 100 nM. The value for `Cc1cc(-n2c3nc(C(F)(F)F)ccc3nc2[C@H]2C[C@@H](F)C2)cc2cn[nH]c12` [Example 246, 2-(3-Fluorocyclobutyl)-3-(7-methyl-1H-indazol-5-yl)-5-(trifluoromethyl)imidazo[4,5-b]pyridine] was 0.126 nM.
